In ChEMBL document CHEMBL5620400, “Design, synthesis, antiviral evaluation, and In silico studies of acrylamides targeting nsP2 from Chikungunya virus” (Eur J Med Chem, 2023):

What was measured:
Polyprotein P1234 [1] = target: T1, Polyprotein P1234 (Chikungunya virus (strain S27-African prototype) (CHIKV), UniProt Q8JUX6); experiment: Inhibition of CHIKV nsP2 protease activity assessed as decrease in the fluorescence signal using peptide substrate measured for 20 mins by FRET analysis
Polyprotein P1234 [2] = target: T1, Polyprotein P1234; experiment: Binding affinity to CHIKV nsP2 assessed as inhibition constant by measuring fluorescence by multimode microplate reader
Polyprotein P1234 [3] = target: T1, Polyprotein P1234; experiment: Binding affinity to CHIKV nsP2 assessed as equilibrium dissociation constant by isothermal titration calorimetry
Sindbis virus [4] = experiment: Antiviral activity against SINV infected african green monkey Vero cells assessed as reduction of plaque formation at 100 uM measured after 48 hrs relative to control; assay type: functional
Sindbis virus [5] = experiment: Antiviral activity against SINV infected african green monkey Vero cells assessed as reduction in viral titer measured after 24 hrs by plaque assay; assay type: functional, organism-based
[6] = Cytotoxicity against african green monkey Vero cells assessed as cell viability measured after 48 hrs by MTT assay; assay type: toxicity, cell-based; settings: chlorocebus sabaeus
Chikungunya virus [7] = experiment: Antiviral activity against CHIKV infected african green monkey Vero cells assessed as inhibition of virus induced cytopathic effect measured after 48 hrs; assay type: functional, organism-based
[8] = Selectivity index, ratio of CC50 for African green monkey Vero cells to EC50 for CHIKV; assay type: toxicity; settings: read-out: Selectivity Index
Chikungunya virus [9] = experiment: Antiviral activity against CHIKV infected african green monkey Vero cells assessed as inhibition of virus induced cytopathic effect by measuring virus positive cells at 50 uM measured after 48 hrs by flow cytometry relative to control; assay type: functional; parameters: scale not given: the % may be the effect or the level left
[10] = Antiviral activity against […] infected african green monkey Vero cells assessed as reduction in viral RNA copies measured per uL at 50 uM measured after 24 hrs (reference value: 1.4 x […] vRNA copy numbers/uL); assay type: functional

T1 sequence (Q8JUX6 536-1333 limits assumed): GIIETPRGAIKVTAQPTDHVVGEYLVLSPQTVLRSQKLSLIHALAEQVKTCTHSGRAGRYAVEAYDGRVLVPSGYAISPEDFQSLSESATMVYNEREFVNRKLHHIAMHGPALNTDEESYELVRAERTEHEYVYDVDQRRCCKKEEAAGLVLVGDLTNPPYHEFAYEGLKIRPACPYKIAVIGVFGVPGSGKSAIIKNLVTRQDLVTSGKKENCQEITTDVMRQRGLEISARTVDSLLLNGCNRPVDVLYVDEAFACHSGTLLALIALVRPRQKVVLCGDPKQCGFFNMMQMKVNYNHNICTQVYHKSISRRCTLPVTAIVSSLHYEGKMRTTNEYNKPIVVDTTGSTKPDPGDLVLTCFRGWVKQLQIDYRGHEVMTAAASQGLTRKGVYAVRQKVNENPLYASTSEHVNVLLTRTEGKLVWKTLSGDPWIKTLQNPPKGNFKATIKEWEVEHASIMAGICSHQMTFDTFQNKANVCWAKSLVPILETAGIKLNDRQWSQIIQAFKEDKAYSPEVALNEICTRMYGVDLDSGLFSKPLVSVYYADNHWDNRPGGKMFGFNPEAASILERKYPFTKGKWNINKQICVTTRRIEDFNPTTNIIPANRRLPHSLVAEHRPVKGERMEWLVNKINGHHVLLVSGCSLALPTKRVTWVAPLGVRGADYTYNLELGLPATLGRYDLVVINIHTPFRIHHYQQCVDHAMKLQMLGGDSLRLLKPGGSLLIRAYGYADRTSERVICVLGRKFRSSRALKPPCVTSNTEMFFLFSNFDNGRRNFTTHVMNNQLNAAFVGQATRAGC

With `O=C(/C=C/c1ccc(C(F)(F)F)cc1)Nc1ccccc1` the IC50 (Polyprotein P1234 [1]) was 12.5 µM, the Ki (Polyprotein P1234 [2]) was 48.6 µM and the Kd (Polyprotein P1234 [3]) was 127 µM. For the same compound, the Imax (Sindbis virus [4]) was 95.76%, the EC50 (Sindbis virus [5]) was 0.95 µM and the CC50 at 48 h [6] was 165 µM. It also gave an EC50 (Chikungunya virus [7]) of 5.2 µM, a selectivity ratio [8] of 31.8 and an Activity (Chikungunya virus [9]) of 35.8%. It also gave an Activity [10] of 720000.

In the case of `O=C(/C=C/c1ccc(Br)cc1)Nc1ccccc1`, the IC50 (Polyprotein P1234 [1]) is reported as 15.2 µM, the Ki (Polyprotein P1234 [2]) is reported as 182 µM and the Kd (Polyprotein P1234 [3]) is reported as 218 µM. It also gave an Imax (Sindbis virus [4]) greater than 79.9% and an EC50 (Sindbis virus [5]) of 3.2 µM.

In the case of `COc1ccccc1/C=C/C(=O)Nc1ccccc1`, the IC50 (Polyprotein P1234 [1]) is reported as 0.95 µM, the Ki (Polyprotein P1234 [2]) is reported as 2.3 µM and the Kd (Polyprotein P1234 [3]) is reported as 198 µM. It also gave an Imax (Sindbis virus [4]) of 58%, an EC50 (Sindbis virus [5]) of 73.1 µM and a CC50 at 48 h [6] greater than 200 µM. It also gave an EC50 (Chikungunya virus [7]) of 25.9 µM and a selectivity ratio [8] greater than 7.72.

`O=C(/C=C/c1ccc(Cl)cc1Cl)Nc1ccccc1` showed an IC50 (Polyprotein P1234 [1]) of 20 µM, a Ki (Polyprotein P1234 [2]) of 92.3 µM and a Kd (Polyprotein P1234 [3]) of 159 µM. For the same compound, the Imax (Sindbis virus [4]) was 88.77%, the EC50 (Sindbis virus [5]) was less than 3.12 µM and the CC50 at 48 h [6] was greater than 200 µM. It also gave an EC50 (Chikungunya virus [7]) of 47.9 µM and a selectivity ratio [8] greater than 4.17.
